Laboratory results as given in article PMC2727956, “Production of the Novel Two-Peptide Lantibiotic Lichenicidin by Bacillus licheniformis DSM 13” (PLoS ONE, 2009).
Where no end group is shown, it is not given here.

How the values were obtained:
[1] = system: S. aureus ATCC 33592 (MRSA); assay: Minimum inhibitory concentrations on agar plates (spotted serial dilutions); assay type: cell-based, Staphylococcus aureus; conditions: S. aureus ATCC 33592 (MRSA) versus S. aureus SG511 (MSSA); serial dilutions in half-concentrated Müller-Hinton broth, 10 µl spotted on Müller Hinton agar lawn, overnight; lichenicidin as isopropanol wash extract
Method: (§1) For the comparison of the antibacterial efficacy of lichenicidin to other lantibiotics, Pep5 [52] and nisin [53] were purified as described previously, and mersacidin was obtained from Sanofi-Aventis (Frankfurt, Germany). Serial dilutions of the lantibiotics and the isopropanol wash extract were prepared in half-concentrated Müller-Hinton broth. Fresh colonies of all indicator organisms were used to prepare cell suspensions of about 5×10^6 colony forming units per ml which were employed to inoculate Müller Hinton agar plates. Ten µl of the lantibiotic solutions were spotted onto the indicator plates. The highest dilution yielding a clear inhibition zone on the lawn was detected by visual inspection after incubation overnight.

[2] = system: S. aureus LT440/09 (cMRSA); assay: as above; assay type: cell-based, Staphylococcus aureus; conditions: S. aureus LT440/09 (cMRSA) versus S. aureus SG511 (MSSA); serial dilutions in half-concentrated Müller-Hinton broth, 10 µl spotted on Müller Hinton agar lawn, overnight; lichenicidin as isopropanol wash extract
Method: as §1

mersacidin: lantibiotic obtained from Sanofi-Aventis (CTFTLPGGGGVCTLTSECIC; also: lantibiotic: thioether bridges, places not given here; UniProt P43683 49-68, looked up)
minimum inhibitory concentration on agar plates, fold higher than against S. aureus SG511 [1]: 4.8±1.6 fold | minimum inhibitory concentration on agar plates, fold higher than against S. aureus SG511 [2]: 4.7±1.6 fold

nisin
minimum inhibitory concentration on agar plates, fold higher than against S. aureus SG511 [1]: 1.83±0.41 fold | minimum inhibitory concentration on agar plates, fold higher than against S. aureus SG511 [2]: 2.67±1.03 fold
